Measured values taken from patent publication US4965280A, “Antifungal carbinols” (E. I. Du Pont de Nemours and Company, priority 1989, dated 1990).
Values after ≈ are worked out from the molar mass of the structure shown. Like-named read-outs stand apart in the source and are kept apart here.

Key:
Pythium aphanadermatum = assay: Example J cucumber damping off; type: in vivo; settings: Pythium, 336 h; 5 kg/ha; read-out: disease control rating, Ex. J
Method: […] Seeds and soil were then inoculated with a mixture of sand, cereal and mycelium of the fungus Pythium aphanadermatum, causal agent of cucumber damping off, and incubated in a growth chamber at 30° C. for 14 days. Disease ratings were then made.

Botrytis cinerea = assay: Example C bean grey mold; type: in vivo; settings: Botrytis cinerea, 24 h, 100 PPM; read-out: disease control rating, Ex. C
In short: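 Test compounds were taken up in acetone (6% of final volume) and suspended at 100 or 20 ppm in purified water containing 250 ppm TREM 014 surfactant (polyhydric alcohol esters). Broad bean seedlings were sprayed with this suspension until run-off.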

Plasmorpara viticola = assay: Example I grape downy mildew; type: in vivo; settings: read-out: disease control rating, Ex. I
In short: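 Applied as a foliar spray to run-off on grape seedlings, the compounds were formulated at 100 or 20 ppm in water containing 250 ppm TREM 014, with acetone making up 6% of the volume.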

Puccinia recondita = assay: Example G wheat leaf rust; type: in vivo; settings: 100 PPM, read-out: disease control rating, Ex. G
[1] = test system: Erysiphe graminis f. sp. tritici; assay: Example D wheat powdery mildew; type: in vivo; settings: Blumeria graminis, 144 h; 100 PPM; read-out: disease control rating, Ex. D
In short: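 Compounds were dissolved in acetone (6% of final volume), then suspended at 100 or 20 ppm in purified water containing 250 ppm TREM 014 surfactant. Wheat seedlings were sprayed with this suspension to run-off.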

Venturia inaequalis = assay: Example A apple scab; type: in vivo; settings: 100 PPM, read-out: disease control rating, Ex. A
In short: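 Test compounds were dissolved in acetone (6% of final volume) and suspended at 100 or 20 ppm in purified water containing 250 ppm of the surfactant TREM 014 (polyhydric alcohol esters). Apple seedlings were sprayed with this suspension to the point of run-off.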

Phytophthora infestans = assay: whole plant or invertebrate; type: in vivo; settings: Phytophthora infestans, in Solanum lycopersicum, read-out: disease control rating, Ex. H, 100 PPM
Rhizoctonia solani [2] = assay: Example K cotton blight; type: in vivo; settings: 336 h, 5 kg/ha, read-out: disease control rating, Ex. K
Method: […] Seeds and soil were then inoculated with a mixture of sand, cereal and mycelium of the fungus Rhizoctonia solani, causal agent of cotton blight, and incubated in a growth chamber at 30° C. for 14 days. Disease ratings were then made.

[3] = test system: Candida albicans ATCC 11651; assay: In vivo systemic Candida infection in mice, primary assay; design: species or system Candida albicans; CF-1 female mice; settings: Candida albicans, 150 mg/kg per day, read-out: % Survival
In short: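 CF-1 female mice (20 g, 10 per group) were infected IV with 0.2 ml of 1×10^7/ml C. albicans ATCC 11651, then given test compound subcutaneously at 50 or 150 mg/kg/day at 1 and 6 h post-infection and once daily for three more days. Survival was followed for 21 days against infected untreated mice; ≥70% protection at 14 days was scored active.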

[4] = test system: Aspergillus fumigatus ATCC 28214; assay: In vitro antifungal MIC, microtiter broth dilution; settings: Aspergillus fumigatus, ATCC28214, 24 h, read-out: MIC values, A. fumigatus, 30°, 24 hours
[5] = test system: Candida albicans ATCC 11651; assay: In vitro antifungal MIC, microtiter broth dilution; settings: Candida albicans, ATCC11651, 24 h, read-out: MIC values, C. albicans, 30°, 24 hours
Rhizoctonia solani [6] = assay: Example F rice sheath blight; type: in vivo; settings: Rhizoctonia solani, 144 h, 100 PPM; read-out: disease control rating, Ex. F
In short: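 Compounds, dissolved in acetone at 6% of final volume, were suspended at 100 or 20 ppm in purified water with 250 ppm polyhydric alcohol ester surfactant (TREM 014). Rice seedlings were sprayed with this suspension to run-off.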

[7] = test system: Cercosporidium personatum; assay: Example B Peanut Late Leafspot; type: in vivo; settings: Nothopassalora personata; 100 PPM; read-out: disease control rating, Ex. B
In short: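 Compounds were dissolved in acetone (6% of final volume) and suspended at 100 or 20 ppm in purified water containing 250 ppm TREM 014 surfactant (polyhydric alcohol esters). The suspension was sprayed to run-off on peanut seedlings.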

Pyricularia oryzae = assay: whole plant or invertebrate; type: in vivo; settings: Pyricularia oryzae, 120 h, read-out: disease control rating, Ex. E, 100 PPM

Row | Compound | pest or weed control at 5000 g/ha (Pythium aphanadermatum) | pest or weed control at 100 ppm (Botrytis cinerea) | pest or weed control at 100 ppm (Plasmorpara viticola) | pest or weed control at 100 ppm (Puccinia recondita) | pest or weed control at 100 ppm [1] | pest or weed control at 100 ppm (Venturia inaequalis) | pest or weed control at 100 ppm (Phytophthora infestans) | pest or weed control at 5000 g/ha (Rhizoctonia solani [2]) | responders at 150 mg/kg ([3]; ATCC11651, 168 h, day 7) | responders at 150 mg/kg ([3]; ATCC11651, 336 h, day 14) | responders at 150 mg/kg ([3]; ATCC11651, 504 h, day 21) | MIC [4] | MIC [5] | pest or weed control at 100 ppm (Rhizoctonia solani [6]) | pest or weed control at 100 ppm [7] | pest or weed control at 100 ppm (Pyricularia oryzae)
1 | C=C(c1ccc(F)cc1)C(O)(Cn1cncn1)c1ccc(Cl)cc1 (centres unmarked) [Example 3] | 0% | 93% | 0% | 100% | 93% | 100% | 0% | 0% | 100% | 100% | 60% | 50 µg/mL (≈ 145 µM) | ≤ 0.4 µg/mL | 93% | 100% | 5%
2 | C=C(c1ccccc1Cl)C(O)(Cn1cncn1)c1ccc(F)cc1 (centres unmarked) [Example 32] | 0% | 98% | 98% | 100% | 95% | 100% | 0% | 0% | 100% | 90% | 50% | 1.6 µg/mL (≈ 4.65 µM) | ≤ 0.4 µg/mL | 33% | 100% | 97%
3 | C=C(c1ccc(F)cc1F)C(O)(Cn1cncn1)c1ccc(F)cc1 (centres unmarked) [Example 94, 2-(4-Fluorophenyl)-3-(2,4-difluorophenyl)-1-(1H-1,2,4-triazol-1-yl)-3-buten-2-ol] | 0% | 96% | 0% | 100% | 98% | 86% | 0% | 0% | 100% | 40% | 10% | 50 µg/mL (≈ 145 µM) | 0.4 µg/mL (≈ 1.16 µM) | 36% | 61% | 78%
4 | C=C(c1ccc(Cl)cc1Cl)C(O)(Cn1cncn1)c1ccc(F)cc1 (centres unmarked) [Example 99] | 0% | 89% | 83% | 100% | 83% | 100% | 0% | 0% | 100% | 100% | 40% | 6.3 µg/mL (≈ 16.7 µM) | 0.05 µg/mL (≈ 0.132 µM) | 61% | 100% | 98%
5 | C=C(c1ccccc1)C(O)(Cn1cncn1)c1ccccc1 (centres unmarked) [Example 608] | 0% | 98% | 0% | 100% | 98% | 87% | 0% | 0% | 100% | 70% | 20% | 6.3 µg/mL (≈ 21.6 µM) | 0.4 µg/mL (≈ 1.37 µM) | 81% | 100% | 4%
6 | C=C(c1ccccc1C(F)(F)F)C(O)(Cn1cncn1)c1ccc(F)cc1 (centres unmarked) [Example 724] | 0% | 95% | 0% | 100% | 100% | 100% | 0% | – | 100% | 90% | 40% | 0.4 µg/mL (≈ 1.06 µM) | 0.4 µg/mL (≈ 1.06 µM) | 100% | 100% | 63%
